Reference: ChEMBL document CHEMBL4311972, “Discovery of a benzothiophene-flavonol halting miltefosine and antimonial drug resistance in Leishmania parasites through the application of medicinal chemistry, screening and genomics” (Eur J Med Chem, 2019)

Columns and labels:
Leishmania infantum = assay: Antileishmanial activity against luciferase expressing intracellular amastigote stage of Leishmania infantum infected in human THP1 cells assessed as parasite growth inhibition measured after 48 to 72 hrs by steady-glo luciferase assay; type: functional, organism-based
Trypanosoma brucei = assay: Antitrypanosomal activity against Trypanosoma brucei bloodstream form assessed as parasite growth inhibition incubated for 72 hrs by resazurin dye based assay; type: functional, organism-based
[1] = Cytotoxicity against human THP1 cells by MTT assay; type: cell-based, THP-1
hERG (KCNH2) = hERG (KCNH2) (Homo sapiens, UniProt Q12809); assay: Inhibition of human ERG at 10 uM incubated for 2 hrs by fluorescence polarization assay relative to control
CYP1A2 = target: T1, CYP1A2 (Homo sapiens, UniProt P05177); assay: Inhibition of human microsomal CYP1A2 expressed in baculovirus infected insect cells at 10 uM using luciferin-1A2 as substrate preincubated with enzyme/substrate mixture for 30 mins followed by further incubation with NADPH for 30 mins by CYP450 luciferase Glo assay relative to control; type: ADME; conditions: probe luciferin-1A2
T1 sequence (P05177 whole entry): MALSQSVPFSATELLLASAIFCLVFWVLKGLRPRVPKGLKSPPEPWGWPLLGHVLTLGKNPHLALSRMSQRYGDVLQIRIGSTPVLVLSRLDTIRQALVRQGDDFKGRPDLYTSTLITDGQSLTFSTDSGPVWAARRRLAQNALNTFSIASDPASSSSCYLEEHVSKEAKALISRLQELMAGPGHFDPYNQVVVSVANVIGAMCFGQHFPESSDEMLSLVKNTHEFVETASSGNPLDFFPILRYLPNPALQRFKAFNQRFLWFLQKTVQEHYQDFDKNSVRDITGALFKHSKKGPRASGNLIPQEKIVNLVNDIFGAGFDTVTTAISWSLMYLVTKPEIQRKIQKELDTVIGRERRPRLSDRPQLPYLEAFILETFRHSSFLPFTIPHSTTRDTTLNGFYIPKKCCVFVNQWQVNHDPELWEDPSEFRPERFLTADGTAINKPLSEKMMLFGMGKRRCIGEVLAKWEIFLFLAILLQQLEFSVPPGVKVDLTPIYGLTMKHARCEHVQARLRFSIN

CYP2C9 = CYP2C9 (Homo sapiens, UniProt P11712); assay: Inhibition of human microsomal CYP2C9 expressed in baculovirus infected insect cells at 10 uM using luciferin-H as substrate preincubated with enzyme/substrate mixture for 30 mins followed by further incubation with NADPH for 30 mins by CYP450 luciferase Glo assay relative to control; type: ADME; conditions: probe luciferin-H
CYP2C19 = CYP2C19 (Homo sapiens, UniProt P33261); assay: Inhibition of human microsomal CYP2C19 expressed in baculovirus infected insect cells at 10 uM using luciferin-H EGE as substrate preincubated with enzyme/substrate mixture for 30 mins followed by further incubation with NADPH for 30 mins by CYP450 luciferase Glo assay relative to control; type: ADME; conditions: probe luciferin-H EGE
CYP2D6 = CYP2D6 (Homo sapiens, UniProt P10635); assay: Inhibition of human microsomal CYP2D6 expressed in baculovirus infected insect cells at 10 uM using luciferin-ME as substrate preincubated with enzyme/substrate mixture for 30 mins followed by further incubation with NADPH for 30 mins by CYP450 luciferase Glo assay relative to control; type: ADME; conditions: probe luciferin-ME
CYP3A4 = CYP3A4 (Homo sapiens, UniProt P08684); assay: Inhibition of human microsomal CYP3A4 expressed in baculovirus infected insect cells at 10 uM using luciferin-IPA as substrate preincubated with enzyme/substrate mixture for 30 mins followed by further incubation with NADPH for 30 mins by CYP450 luciferase Glo assay relative to control; type: ADME; conditions: probe luciferin-IPA
[2] = Cytotoxicity against human A549 cells assessed as cell growth at […] incubated for 48 hrs by Celltiter-Glo luminescence assay relative to control; type: cell-based; set-up: dose or concentration left out as unconfirmed; conditions: read-out: Activity
786-0 = assay: Mitochondrial toxicity in human 786-0 cells at 10 uM incubated with compound for 6 hrs followed by incubation with MitoTracker Red chloromethyl-X-rosamine dye for 45 mins by imaging analysis; type: cell-based; conditions: 786-0, 6 h
[3] = Trypanosoma brucei, 72 h, read-out: EC50

CYP2C19, sequence (P33261 whole entry): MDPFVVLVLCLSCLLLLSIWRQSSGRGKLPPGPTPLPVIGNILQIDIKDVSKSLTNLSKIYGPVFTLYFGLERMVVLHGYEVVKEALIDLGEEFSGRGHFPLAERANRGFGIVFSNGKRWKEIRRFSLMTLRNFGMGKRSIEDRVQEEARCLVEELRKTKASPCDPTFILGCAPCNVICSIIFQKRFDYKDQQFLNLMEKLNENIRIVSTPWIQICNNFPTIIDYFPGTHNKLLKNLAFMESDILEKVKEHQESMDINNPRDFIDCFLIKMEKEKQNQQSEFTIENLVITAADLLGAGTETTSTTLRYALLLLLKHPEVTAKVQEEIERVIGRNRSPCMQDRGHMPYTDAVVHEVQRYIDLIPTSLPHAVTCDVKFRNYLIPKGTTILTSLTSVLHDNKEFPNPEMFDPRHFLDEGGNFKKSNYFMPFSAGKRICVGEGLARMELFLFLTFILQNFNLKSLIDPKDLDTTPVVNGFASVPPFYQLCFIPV
CYP2D6, sequence (P10635 whole entry): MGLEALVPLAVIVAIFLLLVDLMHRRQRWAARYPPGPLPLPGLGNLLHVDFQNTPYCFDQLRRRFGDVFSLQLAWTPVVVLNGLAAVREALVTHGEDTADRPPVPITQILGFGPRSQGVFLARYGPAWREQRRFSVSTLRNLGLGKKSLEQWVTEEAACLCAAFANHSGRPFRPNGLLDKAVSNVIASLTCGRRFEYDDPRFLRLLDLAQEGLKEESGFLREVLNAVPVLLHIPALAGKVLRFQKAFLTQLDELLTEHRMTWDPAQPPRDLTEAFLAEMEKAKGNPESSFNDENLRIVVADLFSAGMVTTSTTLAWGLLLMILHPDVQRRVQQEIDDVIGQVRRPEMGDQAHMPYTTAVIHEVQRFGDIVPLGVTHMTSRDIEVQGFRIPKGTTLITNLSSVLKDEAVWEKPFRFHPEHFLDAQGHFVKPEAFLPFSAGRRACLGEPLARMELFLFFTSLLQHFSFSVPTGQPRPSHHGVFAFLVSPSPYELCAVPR
CYP3A4, sequence (P08684 whole entry): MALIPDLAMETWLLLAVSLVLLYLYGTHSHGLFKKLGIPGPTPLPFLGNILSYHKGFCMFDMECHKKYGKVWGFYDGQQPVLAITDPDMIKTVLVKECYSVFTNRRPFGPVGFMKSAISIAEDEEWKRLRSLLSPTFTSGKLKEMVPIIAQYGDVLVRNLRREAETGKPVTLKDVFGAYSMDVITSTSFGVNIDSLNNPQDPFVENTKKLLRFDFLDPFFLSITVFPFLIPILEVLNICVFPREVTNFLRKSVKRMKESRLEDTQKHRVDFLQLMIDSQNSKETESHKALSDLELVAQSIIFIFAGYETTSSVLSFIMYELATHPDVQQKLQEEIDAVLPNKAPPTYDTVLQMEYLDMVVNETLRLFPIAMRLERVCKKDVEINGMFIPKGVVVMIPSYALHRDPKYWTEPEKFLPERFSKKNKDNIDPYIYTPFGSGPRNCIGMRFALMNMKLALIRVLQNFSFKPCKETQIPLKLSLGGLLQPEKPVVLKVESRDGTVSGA
CYP2C9, sequence (P11712 whole entry): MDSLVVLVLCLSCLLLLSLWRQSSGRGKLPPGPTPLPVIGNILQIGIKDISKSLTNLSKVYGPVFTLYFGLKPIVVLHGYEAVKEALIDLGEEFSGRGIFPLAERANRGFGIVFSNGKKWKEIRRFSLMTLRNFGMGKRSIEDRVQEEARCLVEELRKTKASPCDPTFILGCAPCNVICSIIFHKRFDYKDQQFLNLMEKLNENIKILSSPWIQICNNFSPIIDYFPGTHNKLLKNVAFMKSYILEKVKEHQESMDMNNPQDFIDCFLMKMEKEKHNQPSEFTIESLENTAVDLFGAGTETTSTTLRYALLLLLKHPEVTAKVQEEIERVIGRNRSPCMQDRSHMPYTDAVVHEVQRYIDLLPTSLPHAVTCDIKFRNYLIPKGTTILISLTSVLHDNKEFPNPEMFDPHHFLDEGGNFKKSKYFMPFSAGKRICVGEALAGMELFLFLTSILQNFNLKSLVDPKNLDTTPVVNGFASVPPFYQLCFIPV
hERG (KCNH2), sequence (Q12809 whole entry): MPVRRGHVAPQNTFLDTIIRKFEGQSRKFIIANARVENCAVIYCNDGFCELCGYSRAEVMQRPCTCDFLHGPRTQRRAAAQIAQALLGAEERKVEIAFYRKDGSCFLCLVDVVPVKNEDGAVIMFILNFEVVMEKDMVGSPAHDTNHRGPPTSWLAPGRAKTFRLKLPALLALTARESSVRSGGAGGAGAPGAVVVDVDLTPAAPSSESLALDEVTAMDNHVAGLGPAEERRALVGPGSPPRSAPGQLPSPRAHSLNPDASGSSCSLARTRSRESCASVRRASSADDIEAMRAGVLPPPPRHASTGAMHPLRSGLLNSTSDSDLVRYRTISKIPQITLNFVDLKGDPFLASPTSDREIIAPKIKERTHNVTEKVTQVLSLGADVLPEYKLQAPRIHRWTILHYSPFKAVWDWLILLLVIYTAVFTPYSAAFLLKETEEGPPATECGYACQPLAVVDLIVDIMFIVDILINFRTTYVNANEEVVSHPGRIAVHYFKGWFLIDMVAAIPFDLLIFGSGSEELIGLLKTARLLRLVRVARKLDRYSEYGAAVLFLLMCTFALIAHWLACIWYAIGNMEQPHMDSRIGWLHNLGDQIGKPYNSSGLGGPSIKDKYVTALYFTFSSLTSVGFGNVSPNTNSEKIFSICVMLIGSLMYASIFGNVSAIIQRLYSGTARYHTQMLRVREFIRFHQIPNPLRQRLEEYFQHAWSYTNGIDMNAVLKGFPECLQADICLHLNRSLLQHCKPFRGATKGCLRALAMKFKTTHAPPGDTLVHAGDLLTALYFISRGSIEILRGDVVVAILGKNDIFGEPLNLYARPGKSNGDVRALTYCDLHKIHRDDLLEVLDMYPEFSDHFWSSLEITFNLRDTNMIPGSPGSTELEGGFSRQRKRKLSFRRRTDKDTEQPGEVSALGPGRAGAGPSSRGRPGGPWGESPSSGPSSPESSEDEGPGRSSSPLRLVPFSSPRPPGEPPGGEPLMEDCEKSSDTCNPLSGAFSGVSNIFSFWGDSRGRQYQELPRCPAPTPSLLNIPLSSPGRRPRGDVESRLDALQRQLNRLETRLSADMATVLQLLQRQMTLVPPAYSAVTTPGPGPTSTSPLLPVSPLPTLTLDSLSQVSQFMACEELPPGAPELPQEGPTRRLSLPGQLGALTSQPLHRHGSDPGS

| Structure (SMILES) | EC50 (Leishmania infantum) | EC50 (Trypanosoma brucei) | CC50 [1] [µM] | inhibition at 2 h, 10 µM (hERG (KCNH2)) [%] | inhibition at 0.5 h, 10 µM (CYP1A2) [%] | inhibition at 0.5 h, 10 µM (CYP2C9) [%] | inhibition at 0.5 h, 10 µM (CYP2C19) [%] | inhibition at 0.5 h, 10 µM (CYP2D6) [%] | inhibition at 0.5 h, 10 µM (CYP3A4) [%] | viability at 48 h [2] [%] | Activity (786-0) [%] | EC50 (Trypanosoma brucei; [3]) [µM] |
| --- | --- | --- | --- | --- | --- | --- | --- | --- | --- | --- | --- | --- |
| CCOc1c(-c2csc3ccccc23)oc2ccc(OC)cc2c1=O | Not Active | Not Active | 25 to 50 | 11.8 | 92.4 | 14.1 | 54.5 | 50.2 | 46.9 | 120 | -27.16 |  |
| O=c1c(O)c(-c2csc3ccccc23)oc2cc(Cl)ccc12 | Not Active |  | 50 to 100 | 16.3 | 57.5 | 5.82 | -6.35 | -3.33 | -5.72 | -49.6 | 81.33 | 5.34 |
| O=c1c(O)c(-c2ccco2)oc2ccc(O)cc12 |  | Not Active | 20 to 50 | 6.43 | 96.7 | 47.6 | 73.2 | 36.2 | 7.49 | 104 | 4.3 |  |
| Cc1ccc2c(=O)c(O)c(-c3csc4ccccc34)oc2c1 | Not Active |  | 50 to 100 | -15 | 94.2 | 37 | 39.1 | 28.1 | 13.2 | 50.1 | -19.4 | 4.5 |
| Cc1csc(-c2oc3cccc(O)c3c(=O)c2O)c1 |  | Not Active | > 100 | 34.2 | 106 | 71.8 | 27.3 | 10.9 | 6.11 | 56.8 | 5.8 |  |
| COc1ccc2oc(-c3csc4ccccc34)c(OC(=O)C(C)(C)C)c(=O)c2c1 | Not Active |  | 12.5 to 25 | -23.8 | 51.6 | 33.6 | 31.8 | 11.8 | 50.1 | 133 | -47.48 | 3.7 |
| COc1ccc2oc(-c3csc4ccccc34)c(OC(=O)N(C)C)c(=O)c2c1 | Not Active | Not Active | 12.5 to 25 | -17.9 | 61.1 | -6.48 | 26.3 | 20.3 | 47.4 | 104 | -42.09 |  |
| CCOc1ccc2c(=O)c(O)c(-c3csc4ccccc34)oc2c1 | Not Active | Not Active | 12.5 to 25 | -3.21 | 81.8 | 23 | 46.1 | 24.7 | 11.5 | 11.9 | 29.51 |  |
| Cc1ccc2oc(-c3csc4ccccc34)c(O)c(=O)c2c1 | Not Active |  | < 12.5 | -21.6 | 81.3 | 19.4 | 22.4 | 16 | -19.3 | 129 | -21.98 | 2 |
